The NIST ThermoML archive (doi:10.1021/je2007378)
Numbers after ± are expanded uncertainties.

experiment: excess molar enthalpy (molar enthalpy of mixing); xn = mol fraction of the nth substance listed; settings: 298.15 K; 101 kPa; Liquid; Calvet calorimetry; x1 = 0.5

excess molar enthalpy [kJ/mol] | SMILES
1 ± 1 | C[Si](C)(C)O[Si](C)(C)O[Si](C)(C)O[Si](C)(C)C [decamethyltetrasiloxane] + CCCCCCC
1 ± 1 | C[Si](C)(C)O[Si](C)(C)O[Si](C)(C)O[Si](C)(C)O[Si](C)(C)C [dodecamethylpentasiloxane] + CCCCCCC
5 ± 1 | C[Si](C)(C)O[Si](C)(C)C [hexamethyldisiloxane] + CCCCCCC
1 ± 1 | C[Si](C)(C)O[Si](C)(C)O[Si](C)(C)C [octamethyltrisiloxane] + CCCCCCC

same assay, conditions: 298.15 K; 101 kPa; Liquid; Calvet calorimetry; x2 = 0.5

excess molar enthalpy [kJ/mol] | SMILES
1 ± 1 | C[Si]1(C)O[Si](C)(C)O[Si](C)(C)O[Si](C)(C)O[Si](C)(C)O1 [decamethylcyclopentasiloxane] + CCCCCCC
1 ± 1 | C[Si]1(C)O[Si](C)(C)O[Si](C)(C)O[Si](C)(C)O1 [octamethylcyclotetrasiloxane] + CCCCCCC

experiment: not given; settings: 298.15 K; 101.33 kPa; Liquid; Vibrating tube method

molar volume [m3/mol] | SMILES
0.0003889 ± 9.1e-07 | C[Si]1(C)O[Si](C)(C)O[Si](C)(C)O[Si](C)(C)O[Si](C)(C)O1 [decamethylcyclopentasiloxane]
0.0003662 ± 7.9e-07 | C[Si](C)(C)O[Si](C)(C)O[Si](C)(C)O[Si](C)(C)C [decamethyltetrasiloxane]
0.0004424 ± 9.7e-07 | C[Si](C)(C)O[Si](C)(C)O[Si](C)(C)O[Si](C)(C)O[Si](C)(C)C [dodecamethylpentasiloxane]
0.0001474 ± 5e-08 | CCCCCCC [heptane]
0.000214 ± 6e-08 | C[Si](C)(C)O[Si](C)(C)C [hexamethyldisiloxane]
0.0003121 ± 1e-07 | C[Si]1(C)O[Si](C)(C)O[Si](C)(C)O[Si](C)(C)O1 [octamethylcyclotetrasiloxane]
0.0002903 ± 3e-07 | C[Si](C)(C)O[Si](C)(C)O[Si](C)(C)C [octamethyltrisiloxane]
